Experimental data taken from ChEMBL document CHEMBL1201862, “PubChem BioAssay data set” (2004).
Active and inactive are the calls of the source.

Key:
[1] = viability of uninfected HEp-2 cells – cell-based, HTS, cytotoxicity control for RSV inhibitor project, dose response (AID 2410); type: functional; conditions: human respiratory syncytial virus
Vero = experiment: cells; type: functional, cell-based; conditions: Chlorocebus sabaeus
[2] = molecular target: Luciferin 4-monooxygenase (Photinus pyralis, UniProt P08659); experiment: Counter Screen for Luciferase-based Assay Positives. [Related pubchem assays: 620, 618, 411 ]
Chain of Luciferin 4-monooxygenase (P08659 whole entry): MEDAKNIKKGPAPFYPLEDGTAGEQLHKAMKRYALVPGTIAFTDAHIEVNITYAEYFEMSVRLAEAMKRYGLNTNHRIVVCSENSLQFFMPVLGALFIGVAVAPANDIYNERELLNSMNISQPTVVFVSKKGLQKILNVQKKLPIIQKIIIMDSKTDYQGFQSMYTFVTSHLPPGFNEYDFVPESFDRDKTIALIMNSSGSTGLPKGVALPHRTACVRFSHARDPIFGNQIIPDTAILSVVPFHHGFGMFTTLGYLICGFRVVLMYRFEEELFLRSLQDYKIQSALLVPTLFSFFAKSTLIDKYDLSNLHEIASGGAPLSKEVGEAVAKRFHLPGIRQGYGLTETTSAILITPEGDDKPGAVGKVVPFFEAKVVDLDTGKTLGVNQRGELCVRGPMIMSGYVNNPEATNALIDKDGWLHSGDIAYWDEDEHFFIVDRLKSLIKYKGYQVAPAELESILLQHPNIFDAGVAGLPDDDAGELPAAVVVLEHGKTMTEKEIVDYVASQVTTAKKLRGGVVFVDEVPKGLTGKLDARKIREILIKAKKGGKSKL

Genome polyprotein = Genome polyprotein (dengue virus type 2, UniProt P29990); experiment: flavivirus cap methylation enzyme inhibition – biochemical, confirmation dose response, primary screen (AID 588689); type: functional
Chain of Genome polyprotein (P29990 2492-3391 limits assumed): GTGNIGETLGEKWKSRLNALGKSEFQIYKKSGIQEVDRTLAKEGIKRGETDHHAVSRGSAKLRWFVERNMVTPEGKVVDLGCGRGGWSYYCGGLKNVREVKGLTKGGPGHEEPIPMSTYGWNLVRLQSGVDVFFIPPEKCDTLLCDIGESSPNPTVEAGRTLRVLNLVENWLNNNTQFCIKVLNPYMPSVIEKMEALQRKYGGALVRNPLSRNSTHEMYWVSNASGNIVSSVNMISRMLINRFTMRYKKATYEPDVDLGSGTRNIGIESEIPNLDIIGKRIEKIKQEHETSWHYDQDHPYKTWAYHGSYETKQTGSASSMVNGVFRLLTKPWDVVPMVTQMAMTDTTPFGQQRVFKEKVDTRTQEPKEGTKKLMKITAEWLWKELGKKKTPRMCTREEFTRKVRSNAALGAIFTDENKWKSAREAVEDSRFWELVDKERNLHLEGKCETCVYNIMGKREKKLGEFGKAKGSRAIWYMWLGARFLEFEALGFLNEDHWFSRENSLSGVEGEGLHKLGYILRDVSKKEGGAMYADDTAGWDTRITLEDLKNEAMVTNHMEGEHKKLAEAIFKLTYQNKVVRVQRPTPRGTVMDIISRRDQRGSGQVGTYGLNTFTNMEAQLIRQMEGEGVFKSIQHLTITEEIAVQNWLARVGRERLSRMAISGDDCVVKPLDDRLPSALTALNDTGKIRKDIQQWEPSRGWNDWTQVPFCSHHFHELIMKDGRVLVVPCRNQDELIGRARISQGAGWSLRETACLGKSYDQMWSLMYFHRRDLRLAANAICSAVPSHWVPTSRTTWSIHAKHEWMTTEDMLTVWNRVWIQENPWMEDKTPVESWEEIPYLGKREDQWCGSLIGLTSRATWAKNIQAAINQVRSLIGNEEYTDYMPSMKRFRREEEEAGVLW

[3] = molecular target: T1, Microphthalmia-associated transcription factor (Homo sapiens, UniProt O75030); experiment: reducers of TRPM1 reporter luminescence, concentration series – cell-based, SK-MEL-5, cherry-picked, set 3, MITF inhibitor project, dose response (AID 493073); type: functional;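 note: SK-MEL-5 melanoma cells with luciferase driven by the MITF target TRPM1 promoter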
T1 sequence (O75030 whole entry): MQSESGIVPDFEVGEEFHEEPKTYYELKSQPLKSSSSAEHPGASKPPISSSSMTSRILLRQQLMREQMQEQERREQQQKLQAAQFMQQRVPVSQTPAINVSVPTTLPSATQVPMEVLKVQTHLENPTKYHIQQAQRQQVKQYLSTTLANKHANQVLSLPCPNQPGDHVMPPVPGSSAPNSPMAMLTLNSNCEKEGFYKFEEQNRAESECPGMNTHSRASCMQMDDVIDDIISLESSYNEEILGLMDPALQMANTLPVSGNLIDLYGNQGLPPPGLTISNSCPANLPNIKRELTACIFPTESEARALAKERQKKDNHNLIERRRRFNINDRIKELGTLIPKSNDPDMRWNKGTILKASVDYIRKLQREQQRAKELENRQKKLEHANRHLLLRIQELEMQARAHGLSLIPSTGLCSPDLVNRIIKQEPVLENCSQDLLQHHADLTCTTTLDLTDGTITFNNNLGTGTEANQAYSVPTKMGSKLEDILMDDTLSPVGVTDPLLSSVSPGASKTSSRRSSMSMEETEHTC

[4] = molecular target: Glyceraldehyde-3-phosphate dehydrogenase (Homo sapiens, UniProt P04406)
Chain of Glyceraldehyde-3-phosphate dehydrogenase (P04406 whole entry): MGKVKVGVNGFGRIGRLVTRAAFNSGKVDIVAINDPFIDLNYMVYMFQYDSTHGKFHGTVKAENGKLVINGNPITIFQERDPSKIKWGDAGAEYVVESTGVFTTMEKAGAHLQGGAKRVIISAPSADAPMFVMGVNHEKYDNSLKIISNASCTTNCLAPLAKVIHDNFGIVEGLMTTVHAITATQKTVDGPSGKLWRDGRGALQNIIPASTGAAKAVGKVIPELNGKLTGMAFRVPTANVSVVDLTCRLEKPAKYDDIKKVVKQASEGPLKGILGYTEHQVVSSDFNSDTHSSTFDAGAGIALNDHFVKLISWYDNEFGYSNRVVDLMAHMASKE

[5] = NIH-3T3 fibroblast cytotoxicity, dose response, cytotoxicity control, cell-based, fluorescence, Alamar Blue, secondary assay (AID 2327); type: functional;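 note: NIH-3T3 mouse fibroblasts cultured with fluconazole at 8 µg/mL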
[6] = fluconazole-exposed Candida albicans growth modulators – fluorescence, retest, confirmation (AID 2467); type: functional, cell-based
Mucolipin-3 = Mucolipin-3 (Homo sapiens, UniProt Q8TDD5); experiment: Dose response cell-based high-throughput screening assay for agonists of the transient receptor potential channel ML3 (TRPML3). [Related pubchem assays: 1526, 1424, 1448 ]; type: functional
Chain of Mucolipin-3 (Q8TDD5 whole entry): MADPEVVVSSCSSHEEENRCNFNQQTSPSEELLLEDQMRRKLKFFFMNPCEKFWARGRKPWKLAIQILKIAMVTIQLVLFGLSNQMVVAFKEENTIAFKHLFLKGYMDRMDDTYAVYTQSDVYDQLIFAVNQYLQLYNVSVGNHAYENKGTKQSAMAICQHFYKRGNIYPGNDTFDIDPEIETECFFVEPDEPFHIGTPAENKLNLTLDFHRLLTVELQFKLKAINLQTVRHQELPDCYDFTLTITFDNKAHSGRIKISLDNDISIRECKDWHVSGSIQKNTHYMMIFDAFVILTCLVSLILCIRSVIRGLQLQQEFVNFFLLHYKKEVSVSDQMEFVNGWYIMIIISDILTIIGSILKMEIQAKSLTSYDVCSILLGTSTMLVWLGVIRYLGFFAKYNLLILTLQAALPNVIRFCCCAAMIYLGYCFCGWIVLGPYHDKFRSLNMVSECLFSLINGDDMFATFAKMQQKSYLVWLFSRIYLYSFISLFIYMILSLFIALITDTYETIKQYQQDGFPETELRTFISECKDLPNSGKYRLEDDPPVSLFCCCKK

Ion channel NompC = Ion channel NompC (Danio rerio, UniProt Q7T1G6); experiment: Fluorescence counterscreen assay for TRPML3 agonists: dose response cell-based high-throughput screening assay to identify agonists of the transient receptor potential channel N1 (TRPN1). [Related pubchem assays: 1526, 1424, 1448 ]; type: functional
Chain of Ion channel NompC (Q7T1G6 whole entry): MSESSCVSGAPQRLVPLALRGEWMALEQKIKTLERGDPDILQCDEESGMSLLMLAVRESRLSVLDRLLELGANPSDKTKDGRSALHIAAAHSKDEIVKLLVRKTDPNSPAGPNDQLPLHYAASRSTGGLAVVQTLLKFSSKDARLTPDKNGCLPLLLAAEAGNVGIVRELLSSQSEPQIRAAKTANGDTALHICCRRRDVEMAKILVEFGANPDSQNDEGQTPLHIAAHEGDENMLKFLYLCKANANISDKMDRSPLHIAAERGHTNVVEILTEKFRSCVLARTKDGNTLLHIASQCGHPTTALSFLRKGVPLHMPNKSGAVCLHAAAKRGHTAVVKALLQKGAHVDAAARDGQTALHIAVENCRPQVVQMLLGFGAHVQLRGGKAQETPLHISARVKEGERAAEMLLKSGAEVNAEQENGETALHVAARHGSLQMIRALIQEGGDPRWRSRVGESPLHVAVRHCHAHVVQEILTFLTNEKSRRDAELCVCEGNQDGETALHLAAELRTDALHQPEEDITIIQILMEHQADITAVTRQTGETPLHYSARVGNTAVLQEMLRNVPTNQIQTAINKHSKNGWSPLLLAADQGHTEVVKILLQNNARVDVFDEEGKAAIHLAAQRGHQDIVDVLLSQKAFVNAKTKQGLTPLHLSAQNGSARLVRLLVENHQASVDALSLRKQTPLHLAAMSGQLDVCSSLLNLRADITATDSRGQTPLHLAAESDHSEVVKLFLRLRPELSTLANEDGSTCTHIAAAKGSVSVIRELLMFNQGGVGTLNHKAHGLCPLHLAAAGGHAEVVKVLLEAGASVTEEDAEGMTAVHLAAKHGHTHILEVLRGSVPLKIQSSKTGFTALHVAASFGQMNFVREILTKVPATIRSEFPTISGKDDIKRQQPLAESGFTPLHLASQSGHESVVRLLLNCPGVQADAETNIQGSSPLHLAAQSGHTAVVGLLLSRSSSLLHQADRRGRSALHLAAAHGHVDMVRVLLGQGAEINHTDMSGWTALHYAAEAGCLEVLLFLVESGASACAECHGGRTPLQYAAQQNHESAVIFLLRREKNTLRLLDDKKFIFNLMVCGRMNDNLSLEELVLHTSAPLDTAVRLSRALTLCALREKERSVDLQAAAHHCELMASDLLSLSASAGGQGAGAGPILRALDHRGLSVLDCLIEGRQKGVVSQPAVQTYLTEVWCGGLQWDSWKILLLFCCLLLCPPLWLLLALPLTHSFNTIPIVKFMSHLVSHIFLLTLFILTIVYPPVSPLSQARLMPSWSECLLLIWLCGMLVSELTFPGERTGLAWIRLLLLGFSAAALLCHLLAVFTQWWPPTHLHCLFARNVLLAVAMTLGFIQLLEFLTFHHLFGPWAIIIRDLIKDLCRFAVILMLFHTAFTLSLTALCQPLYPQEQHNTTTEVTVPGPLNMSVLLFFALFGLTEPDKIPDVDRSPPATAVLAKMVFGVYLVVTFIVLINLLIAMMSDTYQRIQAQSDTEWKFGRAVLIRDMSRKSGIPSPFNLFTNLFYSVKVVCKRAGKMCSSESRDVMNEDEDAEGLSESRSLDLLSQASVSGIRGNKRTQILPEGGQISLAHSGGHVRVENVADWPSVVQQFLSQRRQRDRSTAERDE

[7] = molecular target: T2, Calpain-2 catalytic subunit (Sus scrofa, UniProt P43367); experiment: m-calpain protease blockers, concentration series – biochemical, fluorogenic peptide substrate, dose response (AID 1420); type: functional
T2 sequence (P43367 whole entry): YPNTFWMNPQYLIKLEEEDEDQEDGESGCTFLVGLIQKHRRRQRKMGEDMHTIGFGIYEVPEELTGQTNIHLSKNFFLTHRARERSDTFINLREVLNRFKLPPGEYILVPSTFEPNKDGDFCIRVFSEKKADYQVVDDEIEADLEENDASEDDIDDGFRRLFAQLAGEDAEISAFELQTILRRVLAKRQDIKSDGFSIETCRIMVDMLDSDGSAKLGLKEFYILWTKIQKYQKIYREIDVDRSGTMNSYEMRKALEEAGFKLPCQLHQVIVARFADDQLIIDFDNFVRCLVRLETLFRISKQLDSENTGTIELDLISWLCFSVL

[8] = molecular target: Epstein-Barr nuclear antigen 1 (Epstein-Barr virus (strain B95-8) (HHV-4) (Human herpesvirus 4), UniProt P03211); experiment: inhibition of EBV nuclear antigen 1 DNA binding – biochemical, fluorescence polarization, 1536-well, dose response (AID 2381); design: species or system human gammaherpesvirus 4;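 note: fluorescence polarization of a Cy5 DNA probe bound by EBNA-1 protein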
[9] = molecular target: Lytic switch protein BZLF1 (Epstein-Barr virus (strain B95-8) (HHV-4) (Human herpesvirus 4), UniProt P03206); experiment: inhibition of BZLF1 ZTA DNA binding – biochemical, fluorescence polarization, Epstein-Barr virus, 1536-well, counter-screen for EBNA-1 inhibitor project, dose response (AID 2377); design: species or system human gammaherpesvirus 4;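 note: fluorescence polarization of Cy5-labelled ZRE DNA probe bound by purified Zta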
Chain of Lytic switch protein BZLF1 (P03206 whole entry): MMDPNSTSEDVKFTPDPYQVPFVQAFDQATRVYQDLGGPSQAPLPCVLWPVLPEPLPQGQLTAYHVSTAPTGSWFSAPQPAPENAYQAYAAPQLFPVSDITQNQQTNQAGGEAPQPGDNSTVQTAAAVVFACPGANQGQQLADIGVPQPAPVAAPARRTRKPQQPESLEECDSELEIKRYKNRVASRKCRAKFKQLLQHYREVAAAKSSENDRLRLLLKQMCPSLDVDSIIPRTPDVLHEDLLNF

[10] = molecular target: Scavenger receptor class B member 1 (Mus musculus, UniProt Q61009); experiment: mouse SR-BI DiI-HDL uptake blockers – ldlA[mSR-BI] cells, fluorescence, cherry pick, dose response (AID 493194); type: functional, cell-based;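 note: cellular uptake of fluorescent DiI-labeled HDL measured as cell fluorescence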
Chain of Scavenger receptor class B member 1 (Q61009 whole entry): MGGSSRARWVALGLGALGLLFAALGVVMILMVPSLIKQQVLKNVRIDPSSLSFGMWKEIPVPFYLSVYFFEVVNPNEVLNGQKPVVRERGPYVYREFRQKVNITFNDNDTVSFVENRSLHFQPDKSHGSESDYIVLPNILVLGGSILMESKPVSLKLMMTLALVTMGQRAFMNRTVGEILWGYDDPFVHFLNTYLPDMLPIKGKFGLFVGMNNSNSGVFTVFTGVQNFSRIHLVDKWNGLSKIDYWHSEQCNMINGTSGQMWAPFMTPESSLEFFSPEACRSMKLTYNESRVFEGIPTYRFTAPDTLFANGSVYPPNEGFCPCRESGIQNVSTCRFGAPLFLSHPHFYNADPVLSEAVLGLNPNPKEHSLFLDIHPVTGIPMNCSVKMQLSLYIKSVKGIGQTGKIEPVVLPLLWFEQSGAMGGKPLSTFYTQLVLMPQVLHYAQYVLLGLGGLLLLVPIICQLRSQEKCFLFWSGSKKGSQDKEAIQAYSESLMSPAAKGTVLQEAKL

[11] = molecular target: T3, Eukaryotic translation initiation factor 2-alpha kinase 3 (Homo sapiens, UniProt Q9NZJ5); experiment: Counterscreen assay for PERK inhibitors: Dose response cell-based high throughput screening assay to measure inhibition of PERK at 6 hours. [Related pubchem assays: 1522, 1416 ]; type: functional
T3 sequence (Q9NZJ5 whole entry): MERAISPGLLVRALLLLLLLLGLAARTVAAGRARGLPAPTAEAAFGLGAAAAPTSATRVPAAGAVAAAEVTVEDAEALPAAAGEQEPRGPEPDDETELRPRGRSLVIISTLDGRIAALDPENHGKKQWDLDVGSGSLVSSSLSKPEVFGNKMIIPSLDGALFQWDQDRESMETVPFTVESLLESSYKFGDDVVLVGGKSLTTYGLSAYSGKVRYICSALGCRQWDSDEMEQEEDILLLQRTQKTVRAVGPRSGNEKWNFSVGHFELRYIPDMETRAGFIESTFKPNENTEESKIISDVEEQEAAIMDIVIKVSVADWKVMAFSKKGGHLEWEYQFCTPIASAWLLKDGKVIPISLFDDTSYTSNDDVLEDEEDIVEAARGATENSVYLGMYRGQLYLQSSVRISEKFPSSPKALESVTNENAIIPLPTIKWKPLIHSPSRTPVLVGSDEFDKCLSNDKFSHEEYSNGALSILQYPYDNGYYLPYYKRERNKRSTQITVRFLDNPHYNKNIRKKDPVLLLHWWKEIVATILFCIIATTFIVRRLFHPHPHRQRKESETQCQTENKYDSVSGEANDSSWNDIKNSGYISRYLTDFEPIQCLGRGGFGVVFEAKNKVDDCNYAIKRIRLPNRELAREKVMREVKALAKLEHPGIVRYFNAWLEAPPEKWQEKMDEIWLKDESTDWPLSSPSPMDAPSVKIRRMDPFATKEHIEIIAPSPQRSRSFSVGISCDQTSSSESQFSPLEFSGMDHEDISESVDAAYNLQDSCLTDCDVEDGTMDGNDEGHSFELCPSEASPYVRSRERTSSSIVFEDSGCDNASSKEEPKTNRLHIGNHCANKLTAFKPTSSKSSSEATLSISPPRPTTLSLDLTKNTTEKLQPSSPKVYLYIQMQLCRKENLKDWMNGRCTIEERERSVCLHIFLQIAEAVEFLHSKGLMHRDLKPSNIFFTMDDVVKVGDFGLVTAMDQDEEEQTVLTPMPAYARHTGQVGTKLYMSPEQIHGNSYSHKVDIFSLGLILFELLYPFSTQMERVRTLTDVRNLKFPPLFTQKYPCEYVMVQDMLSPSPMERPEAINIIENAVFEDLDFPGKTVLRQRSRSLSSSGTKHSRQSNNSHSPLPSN

[12] = molecular target: T3, Eukaryotic translation initiation factor 2-alpha kinase 3; experiment: Dose response cell-based high-throughput screening assay to measure PERK inhibition. [Related pubchem assays: 1416 ]; type: functional

## Cc1ccc(CSCC(=O)Nc2ccccc2C(=O)O)cc1
[1]
  CC50: 21.9 µM (active)
Vero
  IC50: 12.2 µM (active)
cells
  IC50: 9.39 µM (active)

## O=C(NCc1cccs1)c1nc2c(nnn2Cc2ccccc2Cl)c(=O)[nH]1
[2]
  EC50: 15.4 µM (active)
Genome polyprotein
  IC50: 51.8 µM (active)
[3]
  AC50: 6.66 µM (active)

## NS(=O)(=O)c1ccc2[nH]c3c(c2c1)CCCC3
[4]
  IC50: > 100 µM (not active)

## O=C(c1ccc(C(=O)N2CCCc3ccccc32)s1)N1CCCc2ccccc21
[5]
  EC50: 20.7 µM (inconclusive)
[6]
  EC50: 2.45 µM (active)
[1]
  CC50: > 50 µM (active)
cells
  IC50: > 50 µM (active)

## Cc1ccccc1OCC(=O)Nc1ccccc1N1CCOCC1
Mucolipin-3
  EC50: 5.08 µM (active)
Ion channel NompC
  EC50: > 29.9 µM (not active)

## CCOc1ccc(Nc2nnc(SCc3nc(O)c4ccccc4n3)s2)cc1
[7]
  IC50: 29.2 µM (not active)
[8]
  IC50: 27 µM (not active)
[9]
  IC50: > 111 µM (not active)

## Cc1ccc(NC(=O)c2ccc3c(c2)CCN3S(C)(=O)=O)cc1C
[10]
  AC50: 23.8 µM (active)

## Cn1cc(NC(=O)Nc2ccc(C(F)(F)F)cc2)c(C(F)(F)F)n1
[11]
  EC50: > 55.7 µM (not active)
[12]
  EC50: > 55.7 µM (not active)
